The target in this test is T1, Squalene Synthetase (Rattus norvegicus, UniProt Q02769).
T1 construct: from tissue; host or cells: liver microsomes of male Charles River CD rats fed 0.1% lovastatin
T1 sequence (Q02769 1-416): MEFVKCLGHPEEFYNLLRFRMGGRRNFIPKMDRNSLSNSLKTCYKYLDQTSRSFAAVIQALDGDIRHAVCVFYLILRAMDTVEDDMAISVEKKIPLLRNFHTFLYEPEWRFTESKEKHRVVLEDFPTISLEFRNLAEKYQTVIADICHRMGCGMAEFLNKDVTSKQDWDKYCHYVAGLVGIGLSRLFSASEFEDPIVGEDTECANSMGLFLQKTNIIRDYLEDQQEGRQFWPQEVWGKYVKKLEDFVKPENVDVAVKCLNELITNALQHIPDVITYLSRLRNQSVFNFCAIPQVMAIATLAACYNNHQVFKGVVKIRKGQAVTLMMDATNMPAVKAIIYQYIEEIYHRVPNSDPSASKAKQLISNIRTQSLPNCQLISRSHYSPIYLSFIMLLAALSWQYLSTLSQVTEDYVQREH
Kind of test: Squalene synthetase assay, rat liver microsomes, [4-14C]farnesyl pyrophosphate. It counts as biochemical. Conditions: salt form as tabulated; for IC50: 30° C., 20 minutes; for inhibition at 0.3 µg/mL: conc. 0.3 μg/mL. The procedure:
The intrinsic squalene synthetase inhibitory activity of representative compounds of this invention was measured by the standard in vitro protocol described below:
Male, Charles River CD rats (120 to 150 g) were fed a diet containing 0.1% lovastatin for 4 days. The livers from these rats were homogenized in 5 volumes (mL/g) of ice cold 50 mM HEPES (4-(2-hydroxyethyl)-1-piperazine-ethanesulfonic acid), 5 mM EDTA (ethylenediaminetetraacetic acid) pH 7.5 with a Potter-Elvehjem type tissue grinder. The homogenate was centrifuged twice at 20,000×g for 15 minutes at 4° C., discarding the pellet each time. The supernatant was then centrifuged at 100,000×g for 1 hour at 4° C. The resulting microsomal pellet was resuspended in a volume of the above homogenizing buffer equal to one-fifth the volume of the original homogenate. This microsomal preparation has a protein concentration of about 7 mg/mL. The microsomal suspensions were stored in aliquots at -70° C. Squalene synthetase activity in these aliquots is stable for at least several months.
Prenyl transferase was purified to use in the enzymatic synthesis of radiolabelled farnesyl pyrophosphate. Prenyl transferase was assayed by the method of Rilling (Methods in Enzymology 110, 125-129 (1985)) and a unit of activity is defined as the amount of enzyme that will produce 1 μmole of farnesyl pyrophosphate per minute at 30° C. in the standard assay.
The livers of 23 forty-day old male rats that had been fed 5% cholestyramine plus 0.1% lovastatin were homogenized in a Waring blender in 1 liter of 10 mM mercaptoethanol, 2 mM EDTA, 25 μM leupeptin, 0.005% phenylmethyl sulfonyl fluoride pH 7.0 containing 0.1 trypsin inhibitor units of aprotinin/mL. The homogenate was centrifuged at 20,000×g for 20 minutes. The supernatant was adjusted to pH 5.5. with 6N HOAc and centrifuged at 100,000×g for 1 hour. This supernatant was adjusted to pH 7.0 with 3N KOH and a 35-60% ammonium sulfate fraction taken. The 60% pellet was redissolved in 60 mL of 10 mM potassium phosphate, 10 mM mercaptoethanol, 1 mM EDTA pH 7.0 (Buffer A) and dialyzed against two 1 liter changes of Buffer A. This dialyzed fraction was applied to a 12.5×5 cm column of DEAE-sepharose 4B equilibrated with Buffer A. The column was washed with 700 mL of Buffer A and a 1 liter gradient from Buffer A to 100 mM potassium phosphate, 10 mM mercaptoethanol, 1 mM EDTA pH 7.0. Fractions having a specific activity greater than 0.20 units/mg were combined, solid ammonium sulfate was added to bring to 60% saturation and pelleted. The pellet was dissolved in 8 mL of 10 mM Tris, 10 mM β-mercaptoethanol pH 7.0 (Buffer B). The redissolved pellet was taken to 60% saturation with ammonium sulfate by adding 1.5 volumes of saturated ammonium sulfate in Buffer B. This ammonium sulfate suspension contained 3.5 units/mL with a specific activity of 0.23 units/mg and was free of isopentenyl pyrophosphate isomerase activity. This ammonium sulfate suspension was used for the synthesis of [4-^14 C]farnesyl-pyrophosphate and its activity was stable stored at 4° C. for at least 6 months.
The solvent (ethanol: 0.15N NH4 OH, 1:1) was removed from 55 μCi of [4-^14 C]isopentenyl pyrophosphate(47.9 μCi/μmole) by rotary evaporation. Six hundred microliters of 100 mM Tris, 10 mM MgCl2, 4 mM dithiothreitol pH 7.5 was added and the solution was transferred to a 1.5 ml Eppendorf centrifuge tube. Geranyl-pyrophosphate, 250 μL of a 20 mM solution, and 50 μL of the ammonium sulfate suspension of prenyl transferase were added to initiate the reaction. This incubation contained 5 μmoles of geranyl pyrophosphate, 1.15 μmoles of isopentenyl pyrophosphate, 6 μmoles of MgCl2 of 0.18 units of prenyl transferase in a volume of 900 μL. The incubation was conducted at 37° C. During the incubation, the mix turned cloudy white as the newly formed magnesium complex of farnesyl pyrophosphate precipitated out of solution. […]
(In general: Liver microsomes are vesicles of endoplasmic reticulum, rich in cytochrome P450 enzymes.)

As to `Cn1cc(-c2noc(C3CN4CCC3CC4)n2)c2ccccc21` (centres unmarked) [Compound 3, 3-[3-(1-methyl-1H-indol-3-yl)-1,2,4-oxadiazol-5-yl]-1-azabicyclo[2.2.2]octane], the IC50 by setting is: (in absence of PPi) 1600 nM; (in presence of 1 mM PPi) 28 nM.

On to `Cn1cc(-c2noc(C3CN4CCC3CC4)n2)c2cc(F)ccc21` (centres unmarked) [Compound 4, 3-[3-(5-fluoro-1-methyl-1H-indol-3-yl)-1,2,4-oxadiazol-5-yl]-1-azabicyclo[2.2.2]octane], for which the inhibition at 0.3 µg/mL (in presence of 1 mM PPi) is 97%.

For `CC(=O)OC(c1ccccc1)c1noc(C2CN3CCC2CC3)n1` (centres unmarked) [Compound 6, 3-[3-(1-acetoxy-1-phenylmethyl)-1,2,4-oxadiazol-5-yl]-quinuclidine], where the note is “in presence of 1 mM PPi”, the inhibition at 0.3 µg/mL is 70%.

For `OC(c1ccccc1)c1noc(C2CN3CCC2CC3)n1` (stereo not drawn) [Compound 7, α-phenyl-5-(1-azabicyclo[2.2.2]oct-3-yl)-1,2,4-oxadiazole-3-methanol], under “in presence of 1 mM PPi”, the inhibition at 0.3 µg/mL is 49%.

Regarding `Cn1c(-c2noc(C3CN4CCC3CC4)n2)cc2ccccc21` (centres unmarked) [Compound 15, 3-[3-(1-methyl-1H-indol-2-yl)-1,2,4-oxadiazol-5-yl]-1-azabicyclo[2.2.2]octane], the IC50 stood at 1100 nM (in absence of PPi) and 20 nM (in presence of 1 mM PPi).

In the case of `Cc1ccc2c(c1)c(-c1noc(C3CN4CCC3CC4)n1)cn2C` (centres unmarked) [Compound 19, 3-[3-(1,5-dimethyl-1H-indol-3-yl)-1,2,4-oxadiazol-5-yl]-1-azabicyclo[2.2.2]octane], for the setting “in presence of 1 mM PPi”, the IC50 is 58 nM and the inhibition at 0.3 µg/mL worked out at 96%.

As to `c1ccc(-c2noc(C3CN4CCC3CC4)n2)cc1` (centres unmarked) [Compound 24, 3-[3-phenyl-1,2,4-oxadiazol-5-yl]-1-azabicyclo[2.2.2]octane], under “in presence of 1 mM PPi”, the 50% inhibitory concentration (IC50) was found to be 43 nM and the inhibition at 0.3 µg/mL was 98%.

As to `c1cncc(-c2noc(C3CN4CCC3CC4)n2)c1` (centres unmarked) [Compound 26, 3-[3-(3-pyridinyl)-1,2,4-oxadiazol-5-yl]-1-azabicyclo[2.2.2]octane], the IC50 (in absence of PPi) is more than 10000 nM and the IC50 (in presence of 1 mM PPi) was determined as 660 nM.

For the compound `c1ccc2c(-c3noc(C4CN5CCC4CC5)n3)cccc2c1` (centres unmarked) [Compound 27, 3-[3-(1-naphthalenyl)-1,2,4-oxadiazol-5-yl]-1-azabicyclo[2.2.2]octane], the IC50 (in absence of PPi) came out at 2300 nM. Further, where the note is “in presence of 1 mM PPi”, the IC50 turned out to be 11 nM and the inhibition at 0.3 µg/mL was determined as 99%.

Take `COc1cccc(-c2noc(C3CN4CCC3CC4)n2)c1` (centres unmarked) [Compound 28, 3-[3-(3-methoxyphenyl)-1,2,4-oxadiazol-5-yl]-1-azabicyclo[2.2.2]octane]: the half-maximal inhibitory concentration (IC50) is, setting by setting: (in absence of PPi) 2800 nM; (in presence of 1 mM PPi) 31 nM. Also, under “in presence of 1 mM PPi”, the inhibition at 0.3 µg/mL came out at 99%.

In the case of `COc1ccccc1-c1noc(C2CN3CCC2CC3)n1` (centres unmarked) [Compound 29, 3-[3-(2-methoxyphenyl)-1,2,4-oxadiazol-5-yl]-1-azabicyclo[2.2.2]octane], the IC50 (in absence of PPi) is 14000 nM and the half-inhibitory concentration (IC50) (in presence of 1 mM PPi) turned out to be 250 nM.

Turning to `COc1ccc(-c2noc(C3CN4CCC3CC4)n2)cc1` (centres unmarked) [Compound 30, 3-[3-(4-methoxyphenyl)-1,2,4-oxadiazol-5-yl]-1-azabicyclo[2.2.2]octane], the inhibition at 0.3 µg/mL (in presence of 1 mM PPi) stood at 99%.

Take `Oc1ccccc1-c1noc(C2CN3CCC2CC3)n1` (centres unmarked) [Compound 31, 2-[5-(1-azabicyclo[2.2.2]oct-3-yl)-1,2,4-oxadiazol-5-yl]-phenol]: under “in presence of 1 mM PPi”, the inhibition at 0.3 µg/mL came out at 90%.

`Oc1cccc(-c2noc(C3CN4CCC3CC4)n2)c1` (centres unmarked) [Compound 32, 3-[5-(1-azabicyclo[2.2.2]oct-3-yl)-1,2,4-oxadiazol-5-yl]-phenol]: the inhibition at 0.3 µg/mL (in presence of 1 mM PPi) was found to be 92%.

On to `Oc1ccc(-c2noc(C3CN4CCC3CC4)n2)cc1` (centres unmarked) [Compound 33, 4-[5-(1-azabicyclo[2.2.2]oct-3-yl)-1,2,4-oxadiazol-5-yl]-phenol], for which, under “in presence of 1 mM PPi”, the inhibition at 0.3 µg/mL was 84%.

In the case of `OC(c1ccccc1)(c1ccccc1)c1noc(C2CN3CCC2CC3)n1` (centres unmarked) [Compound 34, 3-[3-(1,1-diphenyl-1-hydroxymethyl)-1,2,4-oxadiazol-5-yl]-quinuclidine], under “in presence of 1 mM PPi”, the inhibition at 0.3 µg/mL is 60%.

On to `c1ccc2c(-c3noc(C4CN5CCC4CC5)n3)c[nH]c2c1` (centres unmarked) [Compound 35, 3-[3-(1H-indol-3-yl)-1,2,4-oxadiazol-5-yl]-1-azabicyclo[2.2.2]octane], for which the IC50 (in absence of PPi) was found to be 1900 nM. Moreover, where the note is “in presence of 1 mM PPi”, the IC50 turned out to be 23 nM and the inhibition at 0.3 µg/mL was found to be 98%.

For `c1ccc2ncc(-c3noc(C4CN5CCC4CC5)n3)cc2c1` (centres unmarked) [Compound 36, 3-[3-(3-quinolyl)-1,2,4-oxadiazol-5-yl]-1-azabicyclo[2.2.2]octane], where the note is “in presence of 1 mM PPi”, the half-maximal inhibitory concentration (IC50) stood at 42 nM and the inhibition at 0.3 µg/mL amounted to 97%.

Turning to `O=C(c1ccccc1)c1noc(C2CN3CCC2CC3)n1` (centres unmarked) [Compound 37, 3-(3-benzoyl-1,2,4-oxadiazol-5-yl)quinuclidine], the inhibition at 0.3 µg/mL (in presence of 1 mM PPi) came out at 64%.

The term IC50 denotes the concentration needed to halve the response being measured. The inhibition is the relative decrease from the control value, in per cent.

(Values after patent US5135935A, “Squalene synthetase inhibitors” (Merck & Co., Inc., priority 1991, dated 1992).)
